Data reported in the Kinase Knowledgebase extract (Sharma et al. 2016).
One block for each compound: values may come before it. Numbered stars: 1 amine (or outer) side, 2 acyl side, 3 side chain; on linkers, the order of the positions; unused ones are H or OH. Square brackets hold non-standard residues; d marks the D form. Peptide text beside a SMILES is read from it. ξ: configuration not given here. X2 = O=CC(=O)CCc1ccc(CC(N[*:1])C(=O)[*:2])cc1; Ile(3ξ) = CCC(C)[C@H](N)C(=O)O

Legend:
[1] = target: EGFR (UniProt P00533)
[2] = target: MAPK14 (human) (UniProt Q16539); experiment: Cell-Based Assay; settings: a375
[3] = target: EGFR (human) (UniProt P00533); settings: a431
[4] = target: EGFR (human) (UniProt P00533)
[5] = target: PIK3CA (human) (UniProt P42336); experiment: Assessment of PIK3CA Kinase Activity in NZOV9 Cells
[6] = target: EGFR (murine) (UniProt P00533); settings: nih3t3/c7
[7] = test system: MAPK14 (Drosophila); experiment: p38 Kinase Inhibition; settings: sf9
[8] = target: EGFR (UniProt P00533); remark: listed apart in the source
[9] = target: PIK3CA (human) (UniProt P42336); experiment: Assessment of PIK3CA Kinase Activity in NZB5 Cells
[10] = target: MAPK14 (human) (UniProt Q16539); experiment: Cellular Inhibition of MAPK14 Kinase in A549 Cells
[11] = target: EGFR (UniProt P00533); remark: listed apart in the source
[12] = target: EGFR (human) (UniProt P00533); remark: listed apart in the source
[13] = target: EGFR (human) (UniProt P00533); remark: listed apart in the source
[14] = target: MAPK14 (UniProt Q16539); experiment: Cascade Assay for Inhibitors of the MAP Kinase Pathway
[15] = target: MAPK14 (human) (UniProt Q16539); experiment: p38-mediated TNF-alpha Inhibition (LPS-Stimulated PBMCs); settings: pbmc
[16] = target: EGFR (UniProt P00533); remark: listed apart in the source
[17] = target: EGFR (UniProt P00533); remark: listed apart in the source
[18] = target: PIK3CA (human) (UniProt P42336); experiment: Assesment of Cell Proliferation of IGROV-1 Cells Using SRB Assay
[19] = target: PIK3CA (human) (UniProt P42336); experiment: Inhibition of PIK3CA Kinase Activity
[20] = target: MAPK14 (human) (UniProt Q16539); experiment: p38 --- TNF Inhibition (PBMC cells)
[21] = target: EGFR (human) (UniProt P00533); settings: a431; remark: listed apart in the source
[22] = target: EGFR (human) (UniProt P00533); settings: a431; remark: listed apart in the source
[23] = target: EGFR (human) (UniProt P00533); settings: a431; remark: listed apart in the source
[24] = target: EGFR (human) (UniProt P00533); settings: hn5
[25] = target: EGFR (murine) (UniProt P00533); settings: f/l-herc

Chain of PIK3CA (human) (P42336 whole entry, looked up): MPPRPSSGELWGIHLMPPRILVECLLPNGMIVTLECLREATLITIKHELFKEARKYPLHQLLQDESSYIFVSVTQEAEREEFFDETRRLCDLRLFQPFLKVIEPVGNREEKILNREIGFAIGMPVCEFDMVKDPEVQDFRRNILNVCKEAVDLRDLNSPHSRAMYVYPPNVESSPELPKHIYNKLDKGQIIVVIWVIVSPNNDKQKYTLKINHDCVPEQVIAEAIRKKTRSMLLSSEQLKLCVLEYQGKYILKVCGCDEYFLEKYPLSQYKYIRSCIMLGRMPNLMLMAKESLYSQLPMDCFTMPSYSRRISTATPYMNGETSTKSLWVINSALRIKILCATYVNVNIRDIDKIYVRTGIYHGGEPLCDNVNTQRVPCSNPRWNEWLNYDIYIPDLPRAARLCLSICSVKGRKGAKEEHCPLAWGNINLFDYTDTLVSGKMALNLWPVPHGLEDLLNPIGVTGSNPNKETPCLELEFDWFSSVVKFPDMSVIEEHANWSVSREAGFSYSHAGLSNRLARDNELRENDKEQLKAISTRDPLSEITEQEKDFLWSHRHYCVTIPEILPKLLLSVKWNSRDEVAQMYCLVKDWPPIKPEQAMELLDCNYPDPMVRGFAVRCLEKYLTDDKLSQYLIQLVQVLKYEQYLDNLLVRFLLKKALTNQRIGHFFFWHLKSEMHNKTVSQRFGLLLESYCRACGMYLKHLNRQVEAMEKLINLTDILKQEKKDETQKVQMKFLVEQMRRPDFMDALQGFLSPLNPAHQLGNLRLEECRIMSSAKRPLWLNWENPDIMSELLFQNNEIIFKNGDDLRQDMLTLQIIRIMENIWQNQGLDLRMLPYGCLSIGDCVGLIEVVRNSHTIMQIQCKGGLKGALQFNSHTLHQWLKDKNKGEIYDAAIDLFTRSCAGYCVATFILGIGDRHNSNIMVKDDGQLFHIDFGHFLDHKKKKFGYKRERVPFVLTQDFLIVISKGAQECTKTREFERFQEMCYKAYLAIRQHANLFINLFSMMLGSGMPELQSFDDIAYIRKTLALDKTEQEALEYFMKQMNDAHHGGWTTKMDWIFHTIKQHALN
Chain of EGFR (murine) (P00533 whole entry, looked up): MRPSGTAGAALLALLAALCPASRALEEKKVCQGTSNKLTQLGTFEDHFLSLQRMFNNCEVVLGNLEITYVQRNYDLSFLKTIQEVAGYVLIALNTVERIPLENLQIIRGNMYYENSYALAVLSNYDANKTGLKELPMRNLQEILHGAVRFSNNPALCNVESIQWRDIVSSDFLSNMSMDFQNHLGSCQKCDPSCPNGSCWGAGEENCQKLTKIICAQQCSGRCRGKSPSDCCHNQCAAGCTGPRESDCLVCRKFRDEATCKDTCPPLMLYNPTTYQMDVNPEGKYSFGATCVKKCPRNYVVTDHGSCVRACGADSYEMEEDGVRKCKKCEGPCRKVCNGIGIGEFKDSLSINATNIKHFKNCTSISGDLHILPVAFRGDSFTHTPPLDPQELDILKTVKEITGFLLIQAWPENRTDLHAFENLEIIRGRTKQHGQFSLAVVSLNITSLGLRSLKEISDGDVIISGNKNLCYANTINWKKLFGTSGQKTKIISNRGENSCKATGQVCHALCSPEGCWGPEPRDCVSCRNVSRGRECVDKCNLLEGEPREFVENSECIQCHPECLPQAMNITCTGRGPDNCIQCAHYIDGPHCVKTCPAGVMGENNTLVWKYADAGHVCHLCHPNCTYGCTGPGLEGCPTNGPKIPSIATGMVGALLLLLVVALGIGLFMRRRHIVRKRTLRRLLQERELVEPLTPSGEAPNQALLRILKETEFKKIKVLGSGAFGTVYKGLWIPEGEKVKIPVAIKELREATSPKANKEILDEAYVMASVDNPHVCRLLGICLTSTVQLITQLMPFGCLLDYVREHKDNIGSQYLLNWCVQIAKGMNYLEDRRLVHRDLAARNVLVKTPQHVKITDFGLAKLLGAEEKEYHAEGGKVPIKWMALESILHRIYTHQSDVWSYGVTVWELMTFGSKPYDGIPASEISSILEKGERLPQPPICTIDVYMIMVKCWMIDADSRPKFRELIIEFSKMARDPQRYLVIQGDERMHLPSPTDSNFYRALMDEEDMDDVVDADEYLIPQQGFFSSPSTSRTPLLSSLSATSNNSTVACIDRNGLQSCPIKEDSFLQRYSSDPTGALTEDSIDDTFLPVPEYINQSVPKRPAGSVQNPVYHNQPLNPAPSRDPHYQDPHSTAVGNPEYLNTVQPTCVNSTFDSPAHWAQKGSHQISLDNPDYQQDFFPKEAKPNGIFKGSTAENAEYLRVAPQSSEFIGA
Chain of EGFR (human) (P00533 whole entry, looked up): as above
Chain of EGFR (P00533 whole entry, looked up): as above
Chain of MAPK14 (human) (Q16539 whole entry, looked up): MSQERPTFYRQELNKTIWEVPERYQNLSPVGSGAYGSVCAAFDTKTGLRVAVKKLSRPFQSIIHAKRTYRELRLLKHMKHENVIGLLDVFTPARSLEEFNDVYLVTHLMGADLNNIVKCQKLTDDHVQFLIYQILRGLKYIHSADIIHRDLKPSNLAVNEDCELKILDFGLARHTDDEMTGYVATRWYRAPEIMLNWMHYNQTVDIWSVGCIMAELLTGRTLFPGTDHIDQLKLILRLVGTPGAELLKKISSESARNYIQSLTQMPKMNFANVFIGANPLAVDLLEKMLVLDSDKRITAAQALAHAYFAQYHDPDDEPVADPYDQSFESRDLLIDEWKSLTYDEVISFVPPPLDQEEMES
Chain of MAPK14 (Q16539 whole entry, looked up): as above

Compound: CCCS(=O)(=O)Nc1ccc(F)c(C(=O)c2c[nH]c3ncc(Cl)cc23)c1F
- IC50 [2]: > 10000 nM

Compound: O=C(Cc1ccc(F)cc1)Nc1cc(SC[C@@H](O)CO)cc([N+](=O)[O-])c1
- IC50 [3]: 28800 nM

Compound: Cc1ccc([N+](=O)[O-])cc1S(=O)(=O)N(C)N=Cc1cnn2cccc(C)c12
- IC50 [5]: > 20000 nM

Compound: COC(=O)CCc1c(C)c[nH]c1C=C1C(=O)Nc2ccccc21
- IC100 [6]: 100 µM

Compound: Cc1cc(F)ccc1-c1nc(N(C(N)=O)c2c(Cl)cccc2Cl)ccc1CO
- IC50 [7]: 2 nM

Compound: CNc1nccc(-c2cn(C(C)C)nc2-c2cc(Cl)cc(NS(C)(=O)=O)c2F)n1
- IC50 [10]: 17000 nM

Compound: COC(=O)N[C@@H](C)CNc1nccc(-c2cn(C(C)C)nc2-c2cc(Cl)cc(NS(C)(=O)=O)c2F)n1
- IC50 [10]: 2200 nM

Compound: O=C1NCN2N=C(Sc3ccc(F)cc3)C=CC2=C1c1c(Cl)cccc1Cl
- IC50 [15]: 390 nM

Compound: COC(=O)NC[C@H](C)Nc1nccc(-c2cn(C(C)C)nc2-c2cc(Cl)cc(NS(C)(=O)=O)c2F)n1
- IC50 [10]: 690 nM

Compound: COc1cc2ncnc(N(C)c3ccccc3)c2cc1OC
- IC50 [17]: 4000 nM

Compound: COc1cc2ncnc(Nc3ccccc3)c2cc1OC
- IC50 [17]: 50 nM

Compound: O=c1ncn2nc(Sc3ccc(Cl)c(Cl)c3)ccc2c1-c1c(Cl)cccc1Cl
- IC50 [20]: 2200 nM

Compound: Cc1ccccc1Cc1cc2c(Nc3ccc(Cl)cc3)nc(N)nc2[nH]1
- IC50 [21]: 5600 nM
- IC50 [22]: 240 nM

Compound: Cc1ccccc1SC1=NN2CNC(=O)C(c3c(Cl)cccc3Cl)=C2C=C1
- IC50 [15]: 210 nM

Compound: CCOc1cc2ncc(C#N)c(Nc3ccc(OCc4ccccn4)c(Cl)c3)c2cc1NC(=O)/C=C/[C@@H]1CCCN1
- IC50 [23]: 3 nM

Compound: CCOc1cc2ncnc(Nc3ccc(F)c(Cl)c3)c2cc1NC(=O)/C=C/[C@H]1CCCN1C
- IC50 [23]: 8 nM

Further lines, with some results ahead:

- IC50 [1]: 80 nM
Compound: Ic1cccc(Nc2ncnc3ccccc23)c1

- IC50 [4]: ≤ 100 nM
Compound: C#Cc1cccc(Nc2ncnc3cc(OC)c(OCCCCCCC(=O)O)cc23)c1

- IC50 [8]: ≤ 185000 nM
Compound: CCC(C)[C@H](NC(=O)[C@H](CCC(=O)O)NC(=O)[C@H](CCC(=O)O)NC(=O)C(Cc1ccc(CCC(=O)C=O)cc1)NC(C)=O)C(=O)N[C@@H](CCC(=O)O)C(=O)O (stereo partly specified) (Ac-[X2]EE[Ile(3ξ)]E-OH)

- IC50 [5]: > 20000 nM
- IC50 [9]: > 20000 nM
Compound: CC(=NN(C)S(=O)(=O)c1cc([N+](=O)[O-])ccc1C)c1cnn2ccc(Br)cc12

- IC50 [4]: ≤ 100 nM
Compound: C#Cc1cc(Nc2ncnc3cc(OC)c(OCCCCCCC(=O)O)cc23)ccc1O

- inhibition [11]: 0
Compound: O=C1NC(=O)C(c2cn(CCOCCO)c3ccccc23)=C1c1c[nH]c2ccccc12

- IC50 [12]: 350 nM
Compound: C=CC(=O)N1CCC[C@H](n2cnc3c(N)nc(Nc4ccc(N5CCCCC5)cc4)nc32)C1

- IC50 [13]: 9 nM
Compound: C#CCCCN1CCN(Cc2c(C)ncnc2Nc2ccc(OCc3cccc(F)c3)c(Cl)c2)CC1

- IC50 [14]: > 3000 nM
Compound: CN(Cc1cccnc1)S(=O)(=O)c1cc(C(=O)O)c(Nc2ccc(I)cc2Cl)c(F)c1F

- IC50 [6]: 50000 nM
Compound: CCOC(=O)CCc1c(C=C2C(=O)Nc3ccccc32)[nH]c(C(=O)OCC)c1CC(=O)OCC

- IC50 [16]: 1250 nM
Compound: Oc1cc2cc(-c3cccnc3)cnc2cc1O

- IC50 [16]: > 20000 nM
Compound: COc1cc2cc(C3C=CC=C3)cnc2cc1OC

- IC50 [14]: > 3000 nM
Compound: COc1ccc(CN(Cc2ccc(OC)cc2)S(=O)(=O)c2cc(C(=O)NOCC3CC3)c(Nc3ccc(I)cc3Cl)c(F)c2F)cc1

- IC50 [19]: > 10000 nM
Compound: CS(=O)(=O)Nc1cccc(-c2cc(OCc3ccccn3)nc(N3CCOCC3)n2)c1
- GI50 [18]: 16000 nM

- IC50 [12]: 602 nM
Compound: C=CC(=O)N1CCC[C@H](n2cnc3c(N)nc(Nc4ccc(N5CCOCC5)cc4)nc32)C1

- IC50 [21]: 46700 nM
- IC50 [22]: > 200000 nM
Compound: Nc1nc(Nc2ccc(Cl)cc2F)c2cc(Cc3cccc4ccccc34)[nH]c2n1

- IC50 [23]: 36 nM
Compound: CCOc1cc2ncc(C#N)c(Nc3ccc(OCc4ccccn4)c(Cl)c3)c2cc1NC(=O)/C=C/[C@@H]1C[C@@H](O)CN1C

- IC50 [16]: > 20000 nM
Compound: COc1ccc(/C=C/c2cnc3cc(OC)c(OC)cc3c2)cc1

- IC50 [3]: > 50000 nM
Compound: Cn1c(NCc2cccc(C(F)(F)F)c2)cc(=O)n(C)c1=O

- IC50 [24]: 130000 nM
Compound: Oc1cc(O)c2nc(-c3ccc(O)c(O)c3)sc2c1

- IC50 [25]: > 10000 nM
Compound: CN1C2CC[C@@]1(Nc1ncc3ncnc(Nc4ccc(F)c(Cl)c4)c3n1)CC(O)C2 (stereo partly specified)
